Converted amounts (≈) assume the structure as drawn.
Legend:
Staphylococcus aureus = experiment: Antimicrobial activity against Staphylococcus aureus ATCC 6538 by twofold serial macrobroth dilution assay
Candida albicans = experiment: Antimicrobial activity against Candida albicans NIH B311 by twofold serial macrobroth dilution assay; format: functional
[1] = test system: Mycobacterium intracellulare; experiment: Antimicrobial activity against Mycobacterium intracellular ATCC 23068 by twofold serial macrobroth dilution assay; format: functional
Cryptococcus neoformans = experiment: Antimicrobial activity against Cryptococcus neoformans ATCC 32264 by twofold serial macrobroth dilution assay; format: functional
Escherichia coli = experiment: Antimicrobial activity against Escherichia coli ATCC 10536 by twofold serial macrobroth dilution assay; format: functional
Bacillus subtilis = experiment: Antimicrobial activity against Bacillus subtilis ATCC 6633 by twofold serial macrobroth dilution assay; format: functional

Row | MIC (Staphylococcus aureus) [µg/mL] | MIC (Candida albicans) [µg/mL] | MIC [1] [µg/mL] | SMILES | MIC (Cryptococcus neoformans) [µg/mL] | MIC (Escherichia coli) [µg/mL] | MIC (Bacillus subtilis) [µg/mL]
1 | 12.5 (≈ 21.7 µM) | 25 (≈ 43.3 µM) | 25 (≈ 43.3 µM) | COc1cc(CC=C(C)C)c(-c2oc3c(CC=C(C)C)c(OC)cc(OC)c3c(=O)c2OC)c(CC=C(C)C)c1OC | – | – | –
2 | 12.5 (≈ 22.1 µM) | 100 (≈ 177 µM) | 12.5 (≈ 22.1 µM) | COc1cc(OC)c2c(c1CC=C(C)C)O[C@H](c1c(CC=C(C)C)cc(OC)c(OC)c1CC=C(C)C)[C@@H](O)C2=O | – | – | –
3 | – | – | 25 (≈ 46.6 µM) | COc1cc(CC=C(C)C)c([C@H]2Oc3c(CC=C(C)C)c(OC)cc(O)c3C(=O)[C@@H]2O)c(CC=C(C)C)c1O | – | – | –
4 | 3.12 (≈ 6.13 µM) | 12.5 (≈ 24.6 µM) | 6.25 (≈ 12.3 µM) | CC(C)=CCc1cc(O)c(O)c(CC=C(C)C)c1[C@H]1Oc2c(CC=C(C)C)c(O)cc(O)c2C(=O)[C@@H]1O [PETALOSTEMUMOL] | 25 (≈ 49.2 µM) | 6.25 (≈ 12.3 µM) | 0.78 (≈ 1.53 µM)

Row | SMILES | MIC (Staphylococcus aureus) [µg/mL] | MIC (Candida albicans) [µg/mL] | MIC [1] [µg/mL] | MIC (Cryptococcus neoformans) [µg/mL] | MIC (Escherichia coli) [µg/mL] | MIC (Bacillus subtilis) [µg/mL]
5 | C[C@@H]1[C@H](O)[C@@H](C)/C=C/C=C/C=C/C=C/C=C/C=C/C=C/[C@H](O[C@@H]2O[C@H](C)[C@@H](O)[C@H](N)[C@@H]2O)C[C@@H]2O[C@](O)(C[C@@H](O)C[C@@H](O)[C@H](O)CC[C@@H](O)C[C@@H](O)CC(=O)O[C@H]1C)C[C@H](O)[C@H]2C(=O)O [AMPHOTERICIN B] | – | 0.39 (≈ 0.422 µM) | – | 0.2 (≈ 0.216 µM) | – | –
6 | CN[C@@H]1[C@H](O[C@H]2[C@H](O[C@H]3[C@H](O)[C@@H](O)[C@H](N=C(N)N)[C@@H](O)[C@@H]3N=C(N)N)O[C@@H](C)[C@]2(O)C=O)O[C@@H](CO)[C@H](O)[C@H]1O [STREPTOMYCIN] | 6.25 (≈ 10.7 µM) | – | 1.56 (≈ 2.68 µM) | – | 3.12 (≈ 5.36 µM) | 1.56 (≈ 2.68 µM)
